Data taken from US11603349B2, “Anti-fibrotic compounds” (Certa Therapeutics Pty Ltd, priority 2017, dated 2023).

Columns and labels:
[1] = system: TGF-β induced [14C]-proline incorporation in rat mesangial cells; assay: [14C]-proline incorporation assay (collagen biosynthesis); assay type: cell-based; conditions: Rattus norvegicus, Mesangial cell, 44 h, inhibition of TGF-β1 (1 ng/ml) induced [14C]-proline incorporation, IRMC cells
[2] = MTS tetrazolium reduction cell viability assay; conditions: rat, rat mesangial cells (1097/IRMC cells), TGF-β1 stimulated, CC50 (μM), vs 1% DMSO vehicle

Row | SMILES | IC50 [1] | CC50 at 48 h [2]
1 | COc1cc(/C=C/C(=O)Nc2ccccc2C(=O)O)ccc1OCC1COC1 [Example 54, (E)-2-(3-(3-methoxy-4-(oxetan-3-ylmethoxy)phenyl)acrylamido)benzoic acid] | 24 µM | > 300 µM
2 | COc1cc(/C=C/C(=O)Nc2ccccc2C(=O)O)ccc1OCc1ccccn1 [Example 55, (E)-2-(3-(3-methoxy-4-(pyridin-2-ylmethoxy)phenyl)acrylamido)benzoic acid] | 44.3 µM | 86.1 µM
3 | COc1cc(/C=C/C(=O)Nc2ccccc2C(=O)O)ccc1OCCc1ccccn1 [Example 56, (E)-2-(3-(3-methoxy-4-(2-(pyridin-2-yl)ethoxy)phenyl)acrylamido)benzoic acid] | 32.2 µM | 150 µM
4 | COc1cc(/C=C/C(=O)Nc2ccccc2C(=O)O)ccc1OCCc1cccnc1 [Example 57, (E)-2-(3-(3-methoxy-4-(2-(pyridin-3-yl)ethoxy)phenyl)acrylamido)benzoic acid] | 9.37 µM | > 76.6 µM
5 | COc1cc(/C=C/C(=O)Nc2ccccc2C(=O)O)ccc1OCc1ccncc1 [Example 58, (E)-2-(3-(3-methoxy-4-(pyridin-4-ylmethoxy)phenyl)acrylamido)benzoic acid] | 39.2 µM | 266 µM
6 | COc1cc(/C=C/C(=O)Nc2ccccc2C(=O)O)ccc1OCCc1ccncc1 [Example 59, (E)-2-(3-(3-methoxy-4-(2-(pyridin-4-yl)ethoxy)phenyl)acrylamido)benzoic acid] | 12.1 µM | 148 µM
7 | COc1cc(/C=C/C(=O)Nc2ccccc2C(=O)O)ccc1OCc1ccnn1C [Example 60, (E)-2-(3-(3-methoxy-4-((1-methyl-1H-pyrazol-5-yl)methoxy)phenyl)acrylamido)benzoic acid] | 20.3 µM | 100 µM
8 | COCCOc1cc(/C=C/C(=O)Nc2ccccc2C(=O)O)ccc1OC [Example 61, (E)-2-(3-(4-methoxy-3-(2-methoxyethoxy)phenyl)acrylamido)benzoic acid] | 48.9 µM | 276 µM
9 | COc1ccc(/C=C/C(=O)Nc2ccccc2C(=O)O)cc1OCCc1ccccn1 [Example 62, (E)-2-(3-(4-methoxy-3-(2-(pyridin-2-yl)ethoxy)phenyl)acrylamido)benzoic acid] | 49 µM | 321 µM
10 | COc1ccc(/C=C/C(=O)Nc2ccccc2C(=O)O)cc1OCc1cccnc1 [Example 63, (E)-2-(3-(4-methoxy-3-(pyridin-3-ylmethoxy)phenyl)acrylamido)benzoic acid] | 18.2 µM | 79.4 µM
11 | COc1ccc(/C=C/C(=O)Nc2ccccc2C(=O)O)cc1OCCc1cccnc1 [Example 64, (E)-2-(3-(4-methoxy-3-(2-(pyridin-3-yl)ethoxy)phenyl)acrylamido)benzoic acid] | 14.2 µM | 142 µM
12 | COc1ccc(/C=C/C(=O)Nc2ccccc2C(=O)O)cc1OCCc1ccncc1 [Example 65, (E)-2-(3-(4-methoxy-3-(2-(pyridin-4-yl)ethoxy)phenyl)acrylamido)benzoic acid] | 18.3 µM | 152 µM
13 | COc1ccc(/C=C/C(=O)Nc2ccccc2C(=O)O)cc1OCc1cnn(C)c1 [Example 66, (E)-2-(3-(4-methoxy-3-((1-methyl-1H-pyrazol-4-yl)methoxy)phenyl)acrylamido)benzoic acid] | 17 µM | > 300 µM
14 | COc1ccc(/C=C/C(=O)Nc2ccccc2C(=O)O)cc1OCc1ccnn1C [Example 67, (E)-2-(3-(4-methoxy-3-((1-methyl-1H-pyrazol-5-yl)methoxy)phenyl)acrylamido)benzoic acid] | 23.5 µM | 144 µM
15 | COc1cc(/C=C/C(=O)Nc2ccccc2C(=O)O)ccc1CN1CCN(C)CC1 [Example 68, (E)-2-(3-(3-methoxy-4-((4-methylpiperazin-1-yl)methyl)phenyl)acrylamido)benzoic acid] | 44.9 µM | > 300 µM
16 | COc1cc(/C=C/C(=O)Nc2ccccc2C(=O)O)ccc1CN1CCOCC1 [Example 69, (E)-2-(3-(3-methoxy-4-(morpholinomethyl)phenyl)acrylamido)benzoic acid] | 48.4 µM | 691 µM
17 | COc1ccc(/C=C/C(=O)Nc2ccccc2C(=O)O)cc1COC1CCN(C)CC1 [Example 70, (E)-2-(3-(4-methoxy-3-(((1-methylpiperidin-4-yl)oxy)methyl)phenyl)acrylamido)benzoic acid] | 49.8 µM | > 300 µM
18 | C#CCOCc1cc(/C=C/C(=O)Nc2ccccc2C(=O)O)ccc1OC [Example 71, (E)-2-(3-(4-methoxy-3-((prop-2-yn-1-yloxy)methyl)phenyl)acrylamido)benzoic acid] | 12.2 µM | 116 µM
19 | C#CCOCc1ccc(/C=C/C(=O)Nc2ccccc2C(=O)O)cc1OC [Example 72, (E)-2-(3-(3-methoxy-4-((prop-2-yn-1-yloxy)methyl)phenyl)acrylamido)benzoic acid] | 15 µM | > 300 µM

The next lines start with results.

Row | IC50 [1] | SMILES | CC50 at 48 h [2]
20 | 33.1 µM | COCc1cc(/C=C/C(=O)Nc2ccccc2C(=O)O)ccc1OC [Example 73, (E)-2-(3-(4-methoxy-3-(methoxymethyl)phenyl)acrylamido)benzoic acid] | > 300 µM
21 | 14.7 µM | C#CCNCc1cc(/C=C/C(=O)Nc2ccccc2C(=O)O)ccc1OC [Example 74, (E)-2-(3-(4-methoxy-3-((prop-2-yn-1-ylamino)methyl)phenyl)acrylamido)benzoic acid] | 319 µM
22 | 27.6 µM | C#CCNCc1ccc(/C=C/C(=O)Nc2ccccc2C(=O)O)cc1OC [Example 75, (E)-2-(3-(3-methoxy-4-((prop-2-yn-1-ylamino)methyl)phenyl)acrylamido)benzoic acid] | > 300 µM
23 | 14.9 µM | C#CCOc1ccc(/C=C/C(=O)Nc2cccc(C#N)c2)c(OCCN(C)C)c1OC [Example 76, (E)-N-(3-cyanophenyl)-3-[2-[2-(dimethylamino)ethoxy]-3-methoxy-4-prop-2-ynoxy-phenyl]prop-2-enamide] | 18.1 µM
24 | 4.69 µM | C#CCOc1ccc(/C=C/C(=O)Nc2ccccc2C#N)c(OCCN(C)C)c1OC [Example 77] | 26.5 µM
25 | 30.4 µM | C#CCOc1ccc(/C=C/C(=O)Nc2ccccc2C(=O)O)c(OCCN(C)C)c1OC [Example 78, (E)-2-(3-(2-(2-(dimethylamino)ethoxy)-3-methoxy-4-(prop-2-yn-1-yloxy)phenyl)acrylamido)-benzoic acid] | 404 µM
26 | 9.52 µM | C#CCOc1ccc(/C=C/C(=O)Nc2ccccc2C#N)c(OC2CN(C)C2)c1OC [Example 79, (E)-N-(2-cyanophenyl)-3-[3-methoxy-2-(1-methylazetidin-3-yl)oxy-4-prop-2-ynoxy-phenyl]prop-2-enamide] | 23.4 µM
27 | 24.5 µM | C#CCOc1ccc(/C=C/C(=O)Nc2ccccc2C(=O)O)c(OC2CCNC2)c1OC (stereo not drawn) [Example 80, 2-[[(E)-3-(3-methoxy-4-prop-2-ynoxy-2-pyrrolidin-3-yloxyphenyl)prop-2-enoyl]amino]benzoic acid] | > 100 µM
28 | 7.15 µM | C#CCOc1ccc(/C=C/C(=O)Nc2ccccc2C#N)c(OC2CCN(C)C2)c1OC (stereo not drawn) [Example 81, (E)-N-(2-cyanophenyl)-3-[3-methoxy-2-(1-methylpyrrolidin-3-yl)oxy-4-prop-2-ynoxy-phenyl]prop-2-enamide] | 24.9 µM
29 | 3.42 µM | C#CCOc1ccc(/C=C/C(=O)Nc2ccccc2C#N)c(OC2CCNC2)c1OC (stereo not drawn) [Example 82, (E)-N-(2-cyanophenyl)-3-(3-methoxy-4-prop-2-ynoxy-2-pyrrolidin-3-yloxy-phenyl)prop-2-enamide] | 13.5 µM
30 | 32.5 µM | C#CCOc1ccc(/C=C/C(=O)Nc2ccccc2C(=O)O)c(OC2CCNCC2)c1OC [Example 83, 2-[[(E)-3-[3-methoxy-2-(4-piperidyloxy)-4-prop-2-ynoxy-phenyl]prop-2-enoyl]amino]benzoic acid] | > 300 µM
31 | 14.7 µM | C#CCOc1ccc(/C=C/C(=O)Nc2ccccc2C(=O)O)c(OCCN2CCOCC2)c1OC [Example 84, 2-[[(E)-3-[3-methoxy-2-(2-morpholinoethoxy)-4-prop-2-ynoxy-phenyl]prop-2-enoyl]amino]benzoic acid] | > 300 µM
32 | 8.92 µM | C#CCOc1ccc(/C=C/C(=O)Nc2ccccc2C#N)c(OCCN2CCOCC2)c1OC [Example 85, (E)-N-(2-cyanophenyl)-3-[3-methoxy-2-(2-morpholinoethoxy)-4-prop-2-ynoxy-phenyl]prop-2-enamide] | 109 µM
33 | 24.9 µM | C#CCOc1ccc(/C=C/C(=O)Nc2ccccc2C(=O)O)c(OCCCN(C)C)c1OC [Example 86, 2-[[(E)-3-[2-[3-(dimethylamino)propoxy]-3-methoxy-4-prop-2-ynoxy-phenyl]prop-2-enoyl]amino]benzoic acid] | > 300 µM
34 | 3.69 µM | C#CCOc1ccc(/C=C/C(=O)Nc2ccccc2C#N)c(OCCCN(C)C)c1OC [Example 87, (E)-N-(2-cyanophenyl)-3-[2-[3-(dimethylamino)propoxy]-3-methoxy-4-prop-2-ynoxy-phenyl]prop-2-enamide] | 12.1 µM
35 | 4.45 µM | C#CCOc1ccc(/C=C/C(=O)Nc2ccccc2C#N)c(OC2CCNCC2)c1OC [Example 88, (E)-N-(2-cyanophenyl)-3-[3-methoxy-2-(4-piperidyloxy)-4-prop-2-ynoxy-phenyl]prop-2-enamide] | 12.4 µM
36 | 4.66 µM | C#CCOc1ccc(/C=C/C(=O)Nc2ccccc2C#N)c(OC2CCN(C)CC2)c1OC [Example 89, (E)-N-(2-cyanophenyl)-3-[3-methoxy-2-[(1-methyl-4-piperidyl)oxy]-4-prop-2-ynoxy-phenyl]prop-2-enamide] | 19.8 µM
